The test system of the assay is Phakopsora pachyrhizi. Briefly: Soya bean rust control test/spray application. Particulars: sprayed one day before inoculation, evaluated 14 days after inoculation. The format is in vivo, Phakopsora pachyrhizi on soya beans (cultivar: Enrei). The procedure: 5 parts by weight of carboxamide of the formula (I), 142.4 parts by weight of acetone and 7.5 parts by weight of emulsifier (polyoxyethylene alkylphenyl ether) are mixed and adjusted with water to the desired concentration.
Soya beans (cultivar: Enrei) were cultivated in plastic containers having a diameter of 7.5 cm. In each case 3 containers, 6 ml of the test substance (preparation as described above) were sprayed onto the seedlings which had reached the 2.3 leaf stage. One day after spraying, the leaves were inoculated with an urediniospore suspension (1×10^5 urediniospores/ml) of Phakopsora pachyrhizi. 14 days after the inoculation, the degree of infection for each container was evaluated and the efficacy was calculated. The phytotoxicity was also monitored.

Setting [1] is: active compound application rate 100 ppm.

Consider “3-(difluoromethyl)-N-[2-(1,3-dimethylbutyl)-4-fluorophenyl]-1-methyl-1H-pyrazole-4-carboxamide [(38)]”, for which, under setting [1], the Efficacy in % came to 95%.

Turning to `Cc1nn(C)c(F)c1C(=O)Nc1ccccc1C(C)CC(C)C` (stereo not shown) [(2), N-[2-(1,3-dimethylbutyl)phenyl]-5-fluoro-1,3-dimethyl-1H-pyrazole-4-carboxamide], the Efficacy in % under setting [1] stood at 100%.

`CC(C)CC(C)c1ccccc1NC(=O)c1c(C(F)(F)F)nn(C)c1F` (stereo not shown) [(5), 3-(trifluoromethyl)-N-[2-(1,3-dimethylbutyl)phenyl]-5-fluoro-1-methyl-1H-pyrazole-4-carboxamide] showed an Efficacy in % under setting [1] of 80%.

`Cn1cc(C(=O)Nc2ccc(F)cc2-c2ccc(Cl)c(Cl)c2)c(C(F)F)n1` [(21), N-(3′,4′-dichloro-5-fluoro-1,1′-biphenyl-2-yl)-3-(difluoromethyl)-1-methyl-1H-pyrazole-4-carboxamide]: the Efficacy in % was found to be 50% under setting [1] and 90% (active compound application rate 250 ppm).

In the case of `Cn1cc(C(=O)Nc2ccccc2-c2ccc(Cl)cc2)c(I)n1` [(33), N-(4′-chlorobiphenyl-2-yl)-3-iodo-1-methyl-1H-pyrazole-4-carboxamide], the Efficacy in % under setting [1] is on record as 50%.

`Cn1cc(C(=O)Nc2ccccc2CCC(C)(C)C)c(C(F)F)n1` [(35), 3-(difluoromethyl)-N-[2-(3,3-dimethylbutyl)phenyl]-1-methyl-1H-pyrazole-4-carboxamide] had an Efficacy in % under setting [1] of 100%.

Under setting [1], `Cc1nn(C)c(F)c1C(=O)Nc1ccccc1CCC(C)(C)C` [(36), N-[2-(3,3-dimethylbutyl)phenyl]-5-fluoro-1,3-dimethyl-1H-pyrazole-4-carboxamide] showed an Efficacy in % of 100%.

On to `Cc1nc(C(F)F)c(C(=O)Nc2ccsc2CC[Si](C)(C)C)s1` [(39), 4-(difluoromethyl)-2-methyl-N-{2-[2-(trimethylsilyl)ethyl]-3-thienyl}-1,3-thiazole-5-carboxamide], for which, under setting [1], the Efficacy in % came out at 80%.

“N-[3′-fluoro-4′-(trifluoromethyl)biphenyl-2-yl]-3-iodo-1-methyl-1H-pyrazole-4-carboxamide [(37)]” yielded an Efficacy in % under setting [1] of 50%.
